Reference: patent US6093732A, “4-hydroxyquinoline-3-carboxamides and hydrazides as antiviral agents” (Pharmacia & Upjohn Company, priority 1998, dated 2000)
Counter-ions that a name gives are not always drawn.

target: T1, HCMV polymerase (Human cytomegalovirus, UniProt P08546); test: HCMV polymerase scintillation proximity assay (SPA), modified version; assay type: biochemical; conditions: Antiviral Selective Polymerase IC50 Values, CMV, Table 1, modified assay with 4.5 mM DTT, compounds in 100% DMSO
T1 construct: made in house; host or cells: recombinant baculovirus-infected SF-9 cells
Experimental: The HCMV polymerase assay is performed using a scintillation proximity assay (SPA) as described in several references, such as N. D. Cook, et al., Pharmaceutical Manufacturing International, pages 49-53 (1992); K. Takeuchi, Laboratory Practice, September issue (1992); U.S. Pat. No. 4,568,649 (1986); which are incorporated by reference herein. Reactions are performed in 96-well plates. The assay is conducted in 100 μl volume with 5.4 mM HEPES (pH 7.5), 11.7 mM KCl, 4.5 mM MgCl2, 0.36 mg/ml BSA, and 90 nM ^3 H-dTTP. Assays are run with and without CHAPS, (3-[(3-Cholamidopropyl)-dimethylammonio]-1-propane-sulfonate) at a final concentration of 2 mM. HCMV polymerase is diluted in enzyme dilution buffer containing 50% glycerol, 250 mM NaCl, 10 mM HEPES (pH 7.5), 100 μg/ml BSA, and 0.01% sodium azide. The HCMV polymerase, which is expressed in recombinant baculovirus-infected SF-9 cells and purified according to literature procedures, is added at 10% (or 10 μl) of the final reaction volume, i.e., 100 μl. Compounds are diluted in 50% DMSO and 10 μl are added to each well. Control wells contain an equivalent concentration of DMSO. Unless noted otherwise, reactions are initiated via the addition of 6 nM biotinylated poly(dA)-oligo(dT) template/primer to reaction mixtures containing the enzyme, substrate, and compounds of interest. Plates are incubated in a 25° C. or 37° C. H2 O bath and terminated via the addition of 40 μl/reaction of 0.5 M EDTA (pH 8) per well. Reactions are terminated within the time-frame during which substrate incorporation is linear and varied depending upon the enzyme and conditions used, i.e., 30 min. for HCMV polymerase. Ten μl of streptavidin-SPA beads (20 mg/ml in PBS/10% glycerol) are added following termination of the reaction. Plates are incubated 10 min. at 37° C., then equilibrated to room temperature, and counted on a Packard Topcount. Linear regressions are performed and IC50 's are calculated using computer software.
A modified version of the above HCMV polymerase assay is performed as described above, but with the following changes: Compounds are diluted in 100% DMSO until final dilution into assay buffer. In the previous assay, compounds are diluted in 50% DMSO. 4.5 mM dithiotherotol (DTT) is added to the polymerase buffer. […] Other viral polymerase assays are performed using procedures similar to those described above.

T1 sequence (P08546 whole entry): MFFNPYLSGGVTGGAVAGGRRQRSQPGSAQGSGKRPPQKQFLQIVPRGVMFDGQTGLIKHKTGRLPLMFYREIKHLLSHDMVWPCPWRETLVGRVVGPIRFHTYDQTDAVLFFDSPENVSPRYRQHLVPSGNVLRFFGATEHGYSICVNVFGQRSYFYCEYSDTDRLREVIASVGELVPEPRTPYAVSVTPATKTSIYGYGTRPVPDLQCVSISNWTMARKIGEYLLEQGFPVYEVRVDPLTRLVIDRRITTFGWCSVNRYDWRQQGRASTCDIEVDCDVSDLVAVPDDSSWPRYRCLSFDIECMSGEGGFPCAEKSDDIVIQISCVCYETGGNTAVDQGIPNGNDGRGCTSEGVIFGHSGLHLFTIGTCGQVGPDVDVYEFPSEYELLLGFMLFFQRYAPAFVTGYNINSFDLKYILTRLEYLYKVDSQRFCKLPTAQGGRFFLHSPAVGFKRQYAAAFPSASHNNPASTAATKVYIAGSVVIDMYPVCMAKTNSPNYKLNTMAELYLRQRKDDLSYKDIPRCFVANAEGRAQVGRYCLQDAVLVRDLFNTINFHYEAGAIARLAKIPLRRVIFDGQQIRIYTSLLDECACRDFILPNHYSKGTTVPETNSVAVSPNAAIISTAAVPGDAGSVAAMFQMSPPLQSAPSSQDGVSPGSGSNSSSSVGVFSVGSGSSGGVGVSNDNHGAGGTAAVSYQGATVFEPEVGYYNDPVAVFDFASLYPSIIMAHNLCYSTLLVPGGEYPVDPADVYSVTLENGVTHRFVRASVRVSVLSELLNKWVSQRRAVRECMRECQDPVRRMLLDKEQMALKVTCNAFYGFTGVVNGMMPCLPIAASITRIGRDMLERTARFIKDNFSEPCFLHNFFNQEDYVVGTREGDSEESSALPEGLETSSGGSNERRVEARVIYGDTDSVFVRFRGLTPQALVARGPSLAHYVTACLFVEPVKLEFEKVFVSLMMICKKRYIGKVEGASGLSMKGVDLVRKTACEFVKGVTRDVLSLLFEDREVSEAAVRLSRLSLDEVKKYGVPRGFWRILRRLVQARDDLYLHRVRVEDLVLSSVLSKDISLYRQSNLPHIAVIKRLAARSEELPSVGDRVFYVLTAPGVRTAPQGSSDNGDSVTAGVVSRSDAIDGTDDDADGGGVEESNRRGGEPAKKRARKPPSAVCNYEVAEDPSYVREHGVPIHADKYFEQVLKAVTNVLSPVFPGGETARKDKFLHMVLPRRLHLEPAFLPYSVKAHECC

`O=C(NCc1ccc(Cl)cc1)c1cnc2c(F)cc(S(=O)(=O)NCCCl)cc2c1O` [Example 245, N-(4-chlorobenzyl)-6-{[(2-chloroethyl)amino]sulfonyl}-8-fluoro-4-hydroxy-3-quinolinecarboxamide] was tested, and the IC50 was 13.3 µM.

same assay, conditions: CMV polymerase; Table 1; modified assay with 4.5 mM DTT, compounds in 100% DMSO; read-out: Antiviral Selective Polymerase IC50 Values, CMV

Compared with `O=C(NNc1ccc(Cl)cc1)c1cnc2c(F)cccc2c1O` [Example 36, 8-Fluoro-4-hydroxy-3-quinolinecarboxylic acid 2-(4-chlorophenyl) hydrazide], `O=C(NNc1ccc(Cl)cc1)c1cnc2ccc(I)cc2c1O` [Example 91, 4-Hydroxy-6-iodo-3-quinolinecarboxylic acid 2-(4-chlorophenyl)hydrazide] is 2.1-fold lower in IC50: 7.8 µM for the first, 3.8 µM for the second.

`CC(C)(C)c1ccc2ncc(C(=O)NCc3ccc(Cl)cc3)c(O)c2c1` [Example 63, N-[(4-Chlorophenyl)methyl]-6-(1,1-dimethylethyl)-4-hydroxy-3-quinolinecarboxamide] and `O=C(NCc1ccc(Cl)cc1)c1cnc2ccc(Br)cc2c1O` [Example 57, 6-Bromo-N-((4-chlorophenyl)methyl)-4-hydroxy-3-quinoline-carboxamide] are within 1.5-fold of each other in IC50: 7 µM for the first, 5.2 µM for the second.

`O=C(NCc1ccc(Cl)cc1)c1cnc2ccc(N3CCOC3=O)cc2c1O` [Example 190, N-(4-Chlorobenzyl)-4-hydroxy-6-(2-oxo-1,3-oxazolidin-3-yl)-3-quinolinecarboxamide] and `O=C(NCc1ccc(Cl)cc1)c1cnc2ccc(I)cc2c1O` [Example 40, N-[(4-Chlorophenyl)methyl]-4-hydroxy-6-iodo-3-quinoline-carboxamide] are within 1.5-fold of each other in IC50: 2.7 µM for the first, 3.5 µM for the second.

First: O=C(NCc1ccc(Cl)cc1)c1cnc2c(OC3CCOCC3)c(F)c(F)cc2c1O [Example 78, N-((4-Chlorophenyl)methyl)-6,7-difluoro-4-hydroxy-8-(tetrahydro-2H-pyran-4-oxy)-3-quinolinecarboxamide]
Second: O=C(NCc1ccc(Cl)cc1)c1cnc2cc(F)c(F)cc2c1O [Example 169, N-[(4-Chlorophenyl)methyl]-6,7-difluoro-4-hydroxy-3-quinolinecarboxamide]
The IC50 of the first is 5.2-fold lower: 0.71 µM for the first, 3.7 µM for the second.

`CN(CCS(=O)(=O)O)C(=O)CCCCCCC(=O)OCC#Cc1ccc2ncc(C(=O)NCc3ccc(Cl)cc3)c(O)c2c1` and `CCN(CCO)c1ccc2ncc(C(=O)NCc3ccc(Cl)cc3)c(O)c2c1` [Example 189, N-(4-Chlorobenzyl)-6-[ethyl(2-hydroxyethyl)amino]-4-hydroxy-3-quinolinecarboxamide] are within 1.5-fold of each other in IC50: 16.5 µM for the first, 19.4 µM for the second.

Going from `O=CCCc1cc(F)c2ncc(C(=O)NCc3ccc(Cl)cc3)c(O)c2c1` [Example 139, N-(4-Chlorobenzyl)-8-fluoro-4-hydroxy-6-(3-oxopropyl)-3-quinolinecarboxamide] to `COC(=O)c1cc(F)c2ncc(C(=O)NCc3ccc(Cl)cc3)c(O)c2c1` [Example 109, Methyl 3-{[(4-chlorobenzyl)amino]carbonyl}-8-fluoro-4-hydroxy-6-quinolinecarboxylate], the IC50 rises from 1.9 µM to 11 µM (5.8-fold).

Compared with `O=C(NCc1ccc(Cl)cc1)c1cnc2cc(NS(=O)(=O)Cc3ccccc3)ccc2c1O` [Example 34, N-[(4-Chlorophenyl)methyl]-4-hydroxy-7-[[(phenylmethyl)-sulfonyl]amino]-3-quinolinecarboxamide], `O=C(NCc1ccc(Cl)cc1)c1cnc2ccc(-c3ccccc3)cc2c1O` [Example 58, N-((4-Chlorophenyl)methyl)-4-hydroxy-6-phenyl-3-quinoline-carboxamide] is 18-fold lower in IC50: 17.9 µM for the first, 1 µM for the second.

`O=C(NCc1ccc(Cl)cc1)c1cnc2c(F)cc(S(=O)(=O)NCc3ccccc3Sc3ccccc3CO)cc2c1O` [Example 260] and `O=C(NCc1ccc(Cl)cc1)c1cnc2c(F)cc(S(=O)(=O)NCCc3c[nH]c4ccccc34)cc2c1O` [Example 210, N-(4-chlorobenzyl)-8-fluoro-4-hydroxy-6-({[2-(1H-indol-3-yl)ethyl]amino}sulfonyl)-3-quinolinecarboxamide] are within 1.5-fold of each other in IC50: 5.7 µM for the first, 4.8 µM for the second.

First: O=C(NCc1ccc(Cl)cc1)c1cnc2ccc3ncsc3c2c1O [Example 66, N-[(4-Chlorophenyl)methyl]-9-hydroxythiazolo[5,4-f]quinoline-8-carboxamide]
Second: O=C(NCc1ccc(Cl)cc1)c1cnc2ccc(Cl)cc2c1O [Example 21, 6-Chloro-N-[(4-chlorophenyl)methyl]-4-hydroxy-3-quinoline-carboxamide]
The IC50 of the first is 15-fold lower: 0.29 µM for the first, 4.4 µM for the second.

Compared with `O=C(NCc1ccc(Cl)cc1)c1cnc2ccc(COC(CO)CO)cc2c1O` [Example 164, N-(4-Chlorobenzyl)-4-hydroxy-6-{[2-hydroxy-1-(hydroxymethyl)ethoxy]methyl}-3-quinolinecarboxamide], `COC(=O)c1ccc2ncc(C(=O)NCc3ccc(Cl)cc3)c(O)c2c1` [Example 165, Methyl 3-{[(4-chlorobenzyl)amino]carbonyl}-4-hydroxy-6-quinolinecarboxylate] is 2.9-fold higher in IC50: 2.3 µM for the first, 6.7 µM for the second.

First: O=C(NCc1ccc(Cl)cc1)c1cnc2cc(I)ccc2c1O [Example 39, N-[(4-Chlorophenyl)methyl]-4-hydroxy-7-iodo-3-quinolinecarboxamide]
Second: O=C(NCc1ccc(Cl)cc1)c1cnc2c(F)cc([S+]([O-])CCO)cc2c1O (stereo not drawn) [Example 177, N-(4-Chlorobenzyl)-8-fluoro-4-hydroxy-6-[(2-hydroxyethyl)sulfinyl]-3-quinolinecarboxamide]
The IC50 of the first is lower: < 3.1 µM for the first, 7.2 µM for the second.

Going from `O=C(NCc1ccc(Cl)cc1)c1cnc2c(F)c(Oc3ccc(CO)cc3)c(F)cc2c1O` [Example 81, N-((4-Chlorophenyl)methyl)-6,8-difluoro-4-hydroxy-7-(4-(hydroxymethyl)phenoxy)-3-quinolinecarboxamide] to `O=C(NCCc1ccc(O)cc1)c1cc(F)c2ncc(C(=O)NCc3ccc(Cl)cc3)c(O)c2c1` [Example 183, N^3-(4-Chlorobenzyl)-8-fluoro-4-hydroxy-N^6-(4-hydroxyphenethyl)-3,6-quinolinedicarboxamide], the IC50 rises from 7.8 µM to 32 µM (4.1-fold). The first is the more potent here.

`O=C(NCc1ccc(Cl)cc1)c1cnc2c(F)cc(S(=O)(=O)NCC(F)(F)F)cc2c1O` [Example 243, N-(4-chlorobenzyl)-8-fluoro-4-hydroxy-6-{[(2,2,2-trifluoroethyl)amino]sulfonyl}-3-quinolinecarboxamide] and `CCOC(=O)CNS(=O)(=O)c1cc(F)c2ncc(C(=O)NCc3ccc(Cl)cc3)c(O)c2c1` [Example 196, Ethyl 2-{[(3-{[(4-chlorobenzyl)amino]carbonyl}-8-fluoro-4-hydroxy-6-quinolinyl)sulfonyl]amino) acetate] are within 1.5-fold of each other in IC50: 15.5 µM for the first, 19.4 µM for the second.

`NCCCCC(N)C(=O)OCCCc1cc(F)c2ncc(C(=O)NCc3ccc(Cl)cc3)c(O)c2c1` (stereo not drawn) [Example 156, 3-(3-{[(4-Chlorobenzyl)amino]carbonyl}-8-fluoro-4-hydroxy-6-quinolinyl)propyl 2,6-diaminohexanoate, trifluoroacetic acid salt] and `O=C(NCc1ccc(Cl)cc1)c1cnc2c(F)cc(S(=O)(=O)NCCSCCO)cc2c1O` [Example 263, N-(4-chlorobenzyl)-8-fluoro-4-hydroxy-6-[({2-[(2-hydroxyethyl)-sulfanyl]ethyl}amino)sulfonyl]-3-quinolinecarboxamide] are within 1.5-fold of each other in IC50: 15.9 µM for the first, 23.1 µM for the second.

Going from `O=C(NCc1ccc(Cl)cc1)c1cnc2c(F)cc(S(=O)(=O)NCc3ccc(-c4csnn4)cc3)cc2c1O` [Example 261, N-(4-chlorobenzyl)-8-fluoro-4-hydroxy-6-({[4-(1,2,3-thiadiazol-4-yl)benzyl]amino}sulfonyl)-3-quinolinecarboxamide] to `O=C(NCc1ccc(Cl)cc1)c1cnc2cc(S(=O)(=O)NCc3cccc4ccccc34)ccc2c1O` [Example 277, N-(4-Chlorobenzyl)-4-hydroxy-7-{[(1-naphthylmethyl)amino]-sulfonyl}-3-quinolinecarboxamide], the IC50 falls from 15.1 µM to 0.77 µM (20-fold).

Going from `CCSC/C=C\c1cc(F)c2ncc(C(=O)NCc3ccc(Cl)cc3)c(O)c2c1` [Example 129, N-[(4-Chlorophenyl)methyl]-6-[(1Z)-3-(ethylthio)-1-propenyl]-8-fluoro-4-hydroxy-3-quinolinecarboxamide] to `O=C(NCc1ccc(Cl)cc1)c1cnc2c(C(F)(F)F)cc(C#CCO)cc2c1O` [Example 121, N-(4-Chlorobenzyl)-4-hydroxy-6-(3-hydroxy-1-propynyl)-8-(trifluoromethyl)-3-quinolinecarboxamide], the IC50 rises from 1 µM to 15 µM (15-fold).
